This is an account of results in patent US20060052341A1, “Control of a biological function” (priority 2002, published 2006).

The nature of series [1]: Serum oestradiol after intravaginal release of oestradiol 17β/cyclodextrin tablets; oestradiol half life. Type of series: in vivo, cattle. How it is done:
However, oestradiol benzoate is only one of the preferred oestrogen component of the present invention.
For the purpose of the present invention as exampled via the control of oestrus in cattle, release of oestrogen tablets into the vagina was carefully timed and recorded. […] A 1 mg dose produced maximum mean values of 130-180 pg/ml at 100-130 minutes after treatment, while a 2 mg dose led to maxima of 180 to >250 pg at 120-150 minutes.
A 1 mg dose produced maximum mean values of 130-180 pg/ml at 100-130 minutes after treatment, while a 2 mg dose led to maxima of 180 to >250 pg at 120-150 minutes, as illustrated in FIG. 11.

The conditions of series [2]: prior art, cited from earlier work.
For series [3] the following is noted: within 6 hours of ingesting 1.5 g, human subjects; cited from earlier work.
The conditions of series [4]: rat, in vivo; cited from earlier work.
Series [5] can be described thus: in vivo. The conditions noted are these: female, cattle. The text has this:
In the urine, up to 30% of an administered dose appears as a conjugate of glucuronic acid and pregnanediol.

For series [6] the following is noted: cited from earlier work.
The conditions of series [7]: 24 mg controlled release implants, non-pregnant heifers; cited from earlier work.
Series [8] has as its system dairy cows. The conditions noted are these: seven hundred and thirty seven dairy cows, three years; cited from earlier work.
Series [9] relates to cattle. The experiment in a line: Luteolysis studies with intravaginal sodium cloprostenol. Type of series: in vivo. How it is done:
In effecting the desired delivery regime for the present invention as directed to use in controlling bestrus in cattle, a number of studies were conducted. […] There is no reliable blood test for sodium cloprostenol. The best test is to assess the success of luteolysis following application of sodium cloprostenol.

The conditions of series [10]: treated cows; cited from earlier work.
[11] abbreviates: 1 mg dose, intravaginal tablet with cyclodextrin carrier.
Where [12] appears, read: 7.2 mg oestradiol 17β intravaginally.
Setting [13] is: 1 mg oestradiol benzoate by intramuscular injection.
Setting [14] is: vaginal administration of 10 mg oestradiol benzoate.

Read-outs that look alike come from different tables or passages of the source.

With `C[C@]12CC[C@@H]3c4ccc(O)cc4CC[C@H]3[C@@H]1CC[C@@H]2O` [oestradiol 17β, oestra-1,3,5 (10)-triene-3,17β-diol], in series [1] (setting [11]), the “maximum mean serum oestradiol” value was 130 to 180 pg/mL and the “time of maximum serum oestradiol after treatment” value is 100 to 130 min. In addition, in series [1] (2 mg dose, intravaginal tablet with cyclodextrin carrier), the “time of maxima of serum oestradiol” value lay in the range of 120 to 150 min. For the same compound, in [1] (intravaginal oestrogen tablets), the “time for serum oestradiol to reach peak values from basal levels” value was 2 to 3 h. In series [1] (oestradiol without the benzoate component), the half life entry is given as “only a few minutes”. For the same compound, in series [2] (7.2 mg oestradiol 17β intravaginally with cyclodextrin), the “peak plasma oestradiol concentration” value is 10 to 20 pg/mL. In [2] (setting [12]), the “duration of elevated plasma levels” value is given as “at least 24 hours” and the “time of peak plasma oestradiol” value is “four”.
With `OCc1ccccc1` [benzyl alcohol], the “dose eliminated in the urine as hippuric acid” value in series [3] is recorded as 75% to 85%.
As for `C[C@]12CC[C@@H]3c4ccc(OC(=O)c5ccccc5)cc4CC[C@H]3[C@@H]1CC[C@@H]2O` [oestradiol benzoate, oestra-1,3,5 (10)-triene-3,17β-diol 3-benzoate], the half life result in [1] (bovine, in vivo) was “longer than two to three minutes”. In series [2] (setting [13]), the “peak plasma oestradiol concentration” value is 8 to 13 pg/mL and the “time of peak plasma oestradiol” value is listed as “approximately 2 hours”. For the same compound, in [2] (setting [14]), the “peak plasma oestradiol concentration” value is 2 to 5 pg/mL and the “time of peak plasma oestradiol” value was 2 to 48 h.
As to `CC(=O)[C@H]1CC[C@H]2[C@@H]3CCC4=CC(=O)CC[C@]4(C)[C@H]3CC[C@]12C` [progesterone], the LD100 in series [4] is recorded as 327.1 mg/kg. Further, the half-life (commonly how long it takes for the measured level to halve) in series [5] was roughly 20 min. In [6] (in vivo), the “half-life of progesterone in blood” value is given as “only a few minutes”.
`C[C@]12CC[C@@H]3c4ccc(O)cc4CC[C@H]3[C@@H]1CC[C@@H]2O` [oestradiol]: the “oestrogen levels in tissues of slaughtered animals” value in series [7] is recorded as “not significantly different from untreated animals”.
In the case of `O=C(O)CCC/C=C\CC1C(O)CC(O)C1/C=C/C(O)COc1cccc(Cl)c1` (stereo not drawn) [sodium cloprostenol, cloprostenol sodium], the “side effects on subsequent fertility” value in series [8] is “no chronic side effects on subsequent fertility”. The “response to treatment compared with prior art intramuscular injection of prostaglandin alone” value in series [9] (HPβCD carrier, increased dose rate) is given as “equivalent response”. The luteolytic effect result was “not having a complete luteolic effect” in [9] (intravaginal, without a suitable carrier, at the level dosed) and “incomplete luteolysis” in series [9] (same dose administered with HPβCD).
For the compound `CCCCC[C@H](O)/C=C/[C@@H]1[C@@H](C/C=C\CCCC(=O)O)[C@@H](O)C[C@H]1O` [prostaglandin PGF2α, prostaglandin F2α], in series [10], the “half-life in the blood” value is reported as “three”. Further, the half-life result in series [6] (rapid breakdown) is recorded as “a few minutes”.
